The subject of the assay is Human cells, IFNg-induced IRF-1 mRNA, SYBR qPCR. The experiment in a line: reduction of STAT1 target gene IRF-1 transcripts – cell-based, SYBR qPCR, powder samples, counter-screen for STAT1 inhibitor project, late-stage follow-up (AID 449758). To be noted: at 10 µM; stronger effect = lower value. For orientation: In qPCR the cycle at which signal appears reflects the starting amount.

Activity calls are given as the source filed them. The rule behind the calls is not given here.

Regarding `CCOC(=O)N1CCN(C(=O)c2ccc(-n3c(=S)[nH]c4ccccc4c3=O)cc2)CC1`, the fold change is 0.883 (inactive). Regarding `Cc1cc(=O)n(C(NC(=O)c2ccccc2)C(=O)c2ccccc2)cn1` (stereo not given), the fold change was 1.24 (inactive). As to `Cc1ccc(-n2nc(C(=O)O)c3ccccc3c2=O)cc1C`, the fold change is 0.764 (inactive). Take `CCOC(=O)C(=CNc1cc(C)nn1-c1ccccc1)C(=O)OCC`: the fold change is 0.997 (inactive). With `O=c1cc(CSc2nc3ccccc3c(=O)[nH]2)c2ccc(O)cc2o1`, the fold change was 1.36 (inactive).
